The target of the test is T1, BRM (Homo sapiens, UniProt P51531).
T1 construct: In-Cell Western Screen of BRM Degradation in SW1573 Cells; endogenous in cells; host or cells: SW1573
Put plainly: In-cell Western screen of BRM degradation in SW1573 cells (Dmax and DC50). The test is classed as cell-based. An outline of the steps:
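Overnight compound treatment (18-20 h, final DMSO 0.1%) of SW1573 cells in DMEM with 10% FBS precedes fixation and in-cell Western staining with 800/680 nm dye-labelled secondaries. Plate images give DC50 and maximal degradation.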

Where [1] appears, read: BRM degradation, SW1573 cells, when tested at the top concentration of between 0.3 and 10 μM, read-out: Dmax (%) (% degraded).
The mark [2] stands for this setting: BRM degradation, SW1573 cells, read-out: DC50.
[3] abbreviates: BRM degradation, SW1573 cells, read-out: Dmax (% degraded).
[4] abbreviates: SW1573, % degraded, when tested at the top concentration of between 0.3 and 10 μM, read-out: BRM Dmax (%).
The mark [5] stands for this setting: target protein degradation, read-out: BRM DC50.
[6] abbreviates: BRM degradation, SW1573 cells, tested at the top concentration of between 0.3 and 10 μM, read-out: Dmax (%) (% degraded).

Read-outs that look alike come from different tables or passages of the source.

T1 sequence (P51531 whole entry): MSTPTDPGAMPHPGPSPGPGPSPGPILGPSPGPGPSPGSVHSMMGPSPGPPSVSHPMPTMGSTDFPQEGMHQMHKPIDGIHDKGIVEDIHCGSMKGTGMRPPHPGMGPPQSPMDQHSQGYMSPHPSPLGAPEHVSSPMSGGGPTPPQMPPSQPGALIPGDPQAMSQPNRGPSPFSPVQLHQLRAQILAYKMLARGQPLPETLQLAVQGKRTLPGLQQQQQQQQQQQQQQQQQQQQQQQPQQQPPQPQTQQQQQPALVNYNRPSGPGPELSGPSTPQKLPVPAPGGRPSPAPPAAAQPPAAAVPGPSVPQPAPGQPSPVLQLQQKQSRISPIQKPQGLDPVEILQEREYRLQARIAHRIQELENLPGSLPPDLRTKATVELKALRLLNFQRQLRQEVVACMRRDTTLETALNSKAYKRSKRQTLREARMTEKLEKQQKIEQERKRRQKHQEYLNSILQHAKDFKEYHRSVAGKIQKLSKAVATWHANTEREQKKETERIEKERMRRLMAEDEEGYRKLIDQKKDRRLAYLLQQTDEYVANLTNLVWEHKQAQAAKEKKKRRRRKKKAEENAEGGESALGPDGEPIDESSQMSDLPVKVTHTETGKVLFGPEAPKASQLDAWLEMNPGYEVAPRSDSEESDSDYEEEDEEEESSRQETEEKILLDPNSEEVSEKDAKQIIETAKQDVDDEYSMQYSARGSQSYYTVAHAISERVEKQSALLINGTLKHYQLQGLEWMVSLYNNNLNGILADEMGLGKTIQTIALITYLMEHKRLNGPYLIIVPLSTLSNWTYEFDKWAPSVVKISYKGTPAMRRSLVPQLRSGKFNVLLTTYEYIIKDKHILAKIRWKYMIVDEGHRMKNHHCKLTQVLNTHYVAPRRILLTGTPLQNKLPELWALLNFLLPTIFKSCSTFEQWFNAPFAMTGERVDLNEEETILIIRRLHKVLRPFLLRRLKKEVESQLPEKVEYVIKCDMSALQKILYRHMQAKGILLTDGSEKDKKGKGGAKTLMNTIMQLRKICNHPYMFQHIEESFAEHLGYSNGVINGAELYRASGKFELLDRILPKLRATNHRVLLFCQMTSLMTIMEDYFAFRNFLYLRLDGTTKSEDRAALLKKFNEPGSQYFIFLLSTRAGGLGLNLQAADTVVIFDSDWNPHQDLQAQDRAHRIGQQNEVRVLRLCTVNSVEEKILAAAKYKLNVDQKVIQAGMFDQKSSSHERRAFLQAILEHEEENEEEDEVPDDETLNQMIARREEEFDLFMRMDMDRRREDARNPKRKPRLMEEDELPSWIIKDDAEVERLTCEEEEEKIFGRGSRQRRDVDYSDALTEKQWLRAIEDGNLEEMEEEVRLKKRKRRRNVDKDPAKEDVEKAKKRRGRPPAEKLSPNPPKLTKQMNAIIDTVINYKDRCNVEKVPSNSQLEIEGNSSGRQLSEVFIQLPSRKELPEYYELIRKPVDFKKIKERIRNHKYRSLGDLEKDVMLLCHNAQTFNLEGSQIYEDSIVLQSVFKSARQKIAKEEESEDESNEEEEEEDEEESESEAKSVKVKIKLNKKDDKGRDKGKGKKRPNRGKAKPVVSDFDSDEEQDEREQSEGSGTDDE

Usually Dmax stands for the largest share of the target that was removed. Consider `Cc1ncsc1-c1ccc(CNC(=O)[C@@H]2C[C@@H](O)CN2C(=O)[C@H](c2cc(OCCOCCOCCn3cc(-c4cc(-c5ccccc5O)nnc4N)cn3)no2)C(C)C)cc1` [compound 14, (2S,4R)-1-[(2S)-2-(3-[2-[2-(2-[4-[3-amino-6-(2-hydroxyphenyl)pyridazin-4-yl]-1H-pyrazol-1-yl]ethoxy)ethoxy]ethoxy]-1,2-oxazol-5-yl)-3-methylbutanoyl]-4-hydroxy-N-[[4-(4-methyl-1,3-thiazol-5-yl)phenyl]methyl]pyrrolidine-2-carboxamide], for which the Dmax under setting [1] is below 50%.

As a reminder, the DC50 is the midpoint of the concentration-degradation curve. As to `Cc1ncsc1-c1ccc([C@H](C)NC(=O)[C@@H]2C[C@@H](O)CN2C(=O)[C@@H](c2cc(OCCOCCOCCCCN3CCC4(CC3)CCN(c3cc(-c5ccccc5O)nnc3N)CC4)no2)C(C)C)cc1` [compound 68, (2S,4R)-1-((R)-2-(3-(2-(2-(4-(9-(3-amino-6-(2-hydroxyphenyl)pyridazin-4-yl)-3,9-diazaspiro[5.5]undecan-3-yl)butoxy)ethoxy)ethoxy)isoxazol-5-yl)-3-methylbutanoyl)-4-hydroxy-N-((S)-1-(4-(4-methylthiazol-5-yl)phenyl)ethyl)pyrrolidine-2-carboxamide], the DC50 under setting [2] was in the range of 2.5 to 10 nM. Besides, the greatest degradation seen (Dmax) under setting [1] was above 75%.

Consider `Cc1ncsc1-c1ccc([C@H](C)NC(=O)[C@@H]2C[C@@H](O)CN2C(=O)[C@@H](c2cc(N3CCC(CN4CCC(O[C@H]5C[C@H](CN6CCC(C(C)n7cc(-c8cc(-c9ccccc9O)nnc8N)cn7)CC6)C5)CC4)CC3)no2)C(C)C)cc1` (stereo partly drawn) [compound 642, (2S,4R)-1-((2R)-2-(3-(4-((4-((1r,3r)-3-((4-(1-(4-(3-amino-6-(2-hydroxyphenyl)pyridazin-4-yl)-1H-pyrazol-1-yl)ethyl)piperidin-1-yl)methyl)cyclobutoxy)piperidin-1-yl)methyl)piperidin-1-yl)isoxazol-5-yl)-3-methylbutanoyl)-4-hydroxy-N-((S)-1-(4-(4-methylthiazol-5-yl)phenyl)ethyl)pyrrolidine-2-carboxamide], for which the DC50 under setting [2] is below 2.5 nM. The maximal degradation (Dmax) under setting [3] was above 75%.

For the compound `Cc1ncsc1-c1ccc([C@H](C)NC(=O)[C@@H]2C[C@@H](O)CN2C(=O)[C@H](c2cc(OCCC3CCN(C(=O)[C@H]4C[C@H](Oc5cc(N6C7CCC6CN(c6cc(-c8ccccc8O)nnc6N)C7)ccn5)C4)CC3)no2)C(C)C)cn1` [compound 260, (2S,4R)-1-((2S)-2-(3-(2-(1-((1r,3S)-3-((4-(3-(3-amino-6-(2-hydroxyphenyl)pyridazin-4-yl)-3,8-diazabicyclo[3.2.1]octan-8-yl)pyridin-2-yl)oxy)cyclobutane-1-carbonyl)piperidin-4-yl)ethoxy)isoxazol-5-yl)-3-methylbutanoyl)-4-hydroxy-N-((S)-1-(6-(4-methylthiazol-5-yl)pyridin-3-yl)ethyl)pyrrolidine-2-carboxamide], under setting [2], the DC50 was above 30 nM.

As for `Cc1ncsc1-c1ccc([C@H](C)NC(=O)[C@@H]2C[C@@H](O)CN2C(=O)[C@@H](c2cc(OCCCN3CCN(CCCOc4cc(N5C6CCC5CN(c5cc(-c7ccccc7O)nnc5N)C6)ccn4)CC3)no2)C(C)C)cc1` [compound 385, (2S,4R)-1-((2R)-2-(3-(3-(4-(3-((4-(3-(3-amino-6-(2-hydroxyphenyl)pyridazin-4-yl)-3,8-diazabicyclo[3.2.1]octan-8-yl)pyridin-2-yl)oxy)propyl)piperazin-1-yl)propoxy)isoxazol-5-yl)-3-methylbutanoyl)-4-hydroxy-N-((S)-1-(4-(4-methylthiazol-5-yl)phenyl)ethyl)pyrrolidine-2-carboxamide], the Dmax under setting [4] is above 75%. For the same compound, under setting [5], the DC50 was below 2.5 nM.

`Cc1ncsc1-c1ccc([C@H](C)NC(=O)[C@@H]2C[C@@H](O)CN2C(=O)[C@@H](c2cc(OCCC3CCN(C[C@H]4C[C@H](C#CC(C)n5cc(-c6cc(-c7ccccc7O)nnc6N)cn5)C4)CC3)no2)C(C)C)cc1` (stereo partly drawn) [compound 632, (2S,4R)-1-((2S)-2-(3-(2-(1-(((1r,3S)-3-(3-(4-(3-amino-6-(2-hydroxyphenyl)pyridazin-4-yl)-1H-pyrazol-1-yl)but-1-yn-1-yl)cyclobutyl)methyl)piperidin-4-yl)ethoxy)isoxazol-5-yl)-3-methylbutanoyl)-4-hydroxy-N-((S)-1-(4-(4-methylthiazol-5-yl)phenyl)ethyl)pyrrolidine-2-carboxamide]: the half-maximal degradation concentration (DC50) under setting [2] is below 2.5 nM. Further, under setting [3], the Dmax is above 75%.

With `Cc1ncsc1-c1ccc([C@H](C)NC(=O)[C@@H]2C[C@@H](O)CN2C(=O)[C@H](c2cc(OCCC3CCN(C(=O)[C@H]4C[C@H](CN5CCC(n6cc(-c7cc(-c8ccccc8O)nnc7N)cn6)CC5)C4)CC3)no2)C(C)C)cc1` [compound 467, (2S,4R)-1-((S)-2-(3-(2-(1-((1r,3S)-3-((4-(4-(3-amino-6-(2-hydroxyphenyl)pyridazin-4-yl)-1H-pyrazol-1-yl)piperidin-1-yl)methyl)cyclobutane-1-carbonyl)piperidin-4-yl)ethoxy)isoxazol-5-yl)-3-methylbutanoyl)-4-hydroxy-N-((S)-1-(4-(4-methylthiazol-5-yl)phenyl)ethyl)pyrrolidine-2-carboxamide], under setting [4], the Dmax is above 75%. In addition, the DC50 under setting [5] is below 2.5 nM.

In the case of `CC(=O)N1CC(NC(=O)[C@@H]2C[C@@H](O)CN2C(=O)[C@H](c2cc(OCCN3CCN(CCOc4cc(N5C6CCC5CN(c5cc(-c7ccccc7O)nnc5N)C6)ccn4)CC3)no2)C(C)C)(c2ccc(-c3scnc3C)cc2)C1` [compound 235, (2S,4R)-N-(1-acetyl-3-(4-(4-methylthiazol-5-yl)phenyl)azetidin-3-yl)-1-((2S)-2-(3-(2-(4-(2-((4-(3-(3-amino-6-(2-hydroxyphenyl)pyridazin-4-yl)-3,8-diazabicyclo[3.2.1]octan-8-yl)pyridin-2-yl)oxy)ethyl)piperazin-1-yl)ethoxy)isoxazol-5-yl)-3-methylbutanoyl)-4-hydroxypyrrolidine-2-carboxamide], the half-maximal degradation concentration (DC50) under setting [2] is above 30 nM.

Consider `Cc1ncsc1-c1ccc([C@H](C)NC(=O)[C@@H]2C[C@@H](O)CN2C(=O)[C@@H](c2cc(OCCN3CCN(CCOCCn4cc(-c5cc(-c6ccccc6O)nnc5N)cn4)CC3)no2)C(C)C)cc1` [compound 62, (2S,4R)-1-((R)-2-(3-(2-(4-(2-(2-(4-(3-amino-6-(2-hydroxyphenyl)pyridazin-4-yl)-1H-pyrazol-1-yl)ethoxy)ethyl)piperazin-1-yl)ethoxy)isoxazol-5-yl)-3-methylbutanoyl)-4-hydroxy-N-((S)-1-(4-(4-methylthiazol-5-yl)phenyl)ethyl)pyrrolidine-2-carboxamide], for which the DC50 under setting [2] lay in the range of 2.5 to 10 nM. The Dmax under setting [1] is above 75%.

`Cc1ncsc1-c1ccc([C@H](C)NC(=O)[C@@H]2C[C@@H](O)CN2C(=O)[C@H](c2onc(OCCN3CCC(O[C@H]4C[C@H](Oc5cc(N6C7CCC6CN(c6cc(-c8ccccc8O)nnc6N)C7)ccn5)C4)CC3)c2F)C(C)C)cc1` [compound 208, (2S,4R)-1-((2S)-2-(3-(2-(4-((1r,3S)-3-((4-(3-(3-amino-6-(2-hydroxyphenyl)pyridazin-4-yl)-3,8-diazabicyclo[3.2.1]octan-8-yl)pyridin-2-yl)oxy)cyclobutoxy)piperidin-1-yl)ethoxy)-4-fluoroisoxazol-5-yl)-3-methylbutanoyl)-4-hydroxy-N-((S)-1-(4-(4-methylthiazol-5-yl)phenyl)ethyl)pyrrolidine-2-carboxamide]: the 50% degradation concentration (DC50) under setting [2] is above 30 nM. Moreover, the maximal degradation (Dmax) under setting [6] was above 75%.

On to `Cc1cc([C@H](C(=O)N2C[C@H](O)C[C@H]2C(=O)N[C@@H](COCCOCCNc2ccc(-c3ccccc3O)nn2)c2ccc(-c3scnc3C)cc2)C(C)C)on1` [compound 526, (2S,4R)-4-hydroxy-N-((R)-2-(2-(2-((6-(2-hydroxyphenyl)pyridazin-3-yl)amino)ethoxy)ethoxy)-1-(4-(4-methylthiazol-5-yl)phenyl)ethyl)-1-((R)-3-methyl-2-(3-methylisoxazol-5-yl)butanoyl)pyrrolidine-2-carboxamide], for which the DC50 (BRM degradation, read-out: BRM DC50) was above 30 nM.

As for `Cc1ncsc1-c1ccc([C@H](C)NC(=O)[C@@H]2C[C@@H](O)CN2C(=O)[C@@H](c2cc(OCC(=O)N3CCC(O[C@H]4C[C@H](Oc5cc(N6C7CCC6CN(c6cc(-c8ccccc8O)nnc6N)C7)ccn5)C4)CC3)no2)C(C)C)cn1` [compound 286, (2S,4R)-1-((2R)-2-(3-(2-(4-((1r,3R)-3-((4-(3-(3-amino-6-(2-hydroxyphenyl)pyridazin-4-yl)-3,8-diazabicyclo[3.2.1]octan-8-yl)pyridin-2-yl)oxy)cyclobutoxy)piperidin-1-yl)-2-oxoethoxy)isoxazol-5-yl)-3-methylbutanoyl)-4-hydroxy-N-((S)-1-(6-(4-methylthiazol-5-yl)pyridin-3-yl)ethyl)pyrrolidine-2-carboxamide], the DC50 under setting [2] was 2.5 to 10 nM. In addition, the greatest degradation seen (Dmax) under setting [6] was above 75%.

`Cc1ncsc1-c1ccc([C@H](C)NC(=O)[C@@H]2C[C@@H](O)CN2C(=O)[C@H](c2cc(CCCN3CCC(O[C@H]4C[C@H](Oc5cc(N6C7CCC6CN(c6cc(-c8ccccc8O)nnc6N)C7)ccn5)C4)CC3)no2)C(C)C)cc1` [compound 190, (2S,4R)-1-((2S)-2-(3-(3-(4-((1r,3S)-3-((4-(3-(3-amino-6-(2-hydroxyphenyl)pyridazin-4-yl)-3,8-diazabicyclo[3.2.1]octan-8-yl)pyridin-2-yl)oxy)cyclobutoxy)piperidin-1-yl)propyl)isoxazol-5-yl)-3-methylbutanoyl)-4-hydroxy-N-((S)-1-(4-(4-methylthiazol-5-yl)phenyl)ethyl)pyrrolidine-2-carboxamide]: the 50% degradation concentration (DC50) under setting [2] was above 30 nM.
